Test system: 997726-040-R-J2-PDC tumor spheroids, viability
Experiment: Anticancer human tumor 997726-040-R-J2-PDC patient-derived squamous cell lung carcinoma cell line growth inhibition [PI3K]
Conditions: spheroids with HUVEC and MSC; for IC50: curve of first compound; for viability, T/C: stronger effect = lower value
Text: Combinatorial screen of targeted agents with the PI3K inhibitors inavolisib, alpelisib, duvelisib, and copanlisib in multi-cell type tumor spheroids
A high-throughput screen of multi-cell type tumor spheroids was designed to identify active combinations of targeted small molecules and PI3K pathway inhibitors. Complex spheroids include a stromal component modeled by human endothelial cells (HUVEC) and fibroblasts modeled by human mesenchymal stem cells (MSCs). The concentration ranges selected for each drug and investigational agent were based upon clinically achievable concentrations if the clinical Cmax of the agent was known.
Compounds. The drugs and investigational agents: inavolisib (NSC800729), alpelisib (NSC765974), duvelisib (NSC772469), copanlisib (NSC816437), ipatasertib (NSC767898), afuresertib (NSC778305), talazoparib (NSC767125), sapanisertib (NSC764658), selumetinib (NSC741078), tovorafenib (DAY101, NSC766906), vemurafenib (NSC761431), ravoxertinib (NSC781343), sotorasib (NSC818433), MRTX1133 (NSC 836407), abemaciclib (NSC 768073), palbociclib (NSC758247), venetoclax (NSC 766270), SY5609 (NSC837396), enzalutamide (NSC755605), and darolutamide (NSC825331), were obtained from the National Cancer Institute (NCI) Developmental Therapeutics Program Chemical Repository. The FDA-approved anticancer drug set is available from the NCI Developmental Therapeutics Program. […] The stock solutions were prepared in dimethyl sulfoxide (DMSO, Sigma-Aldrich, St. Louis, MO, cat. D2650) at 800-fold the tested concentration and stored at -70 degrees C prior to their use. All drugs and investigational agents were tested over a range starting from a high concentration at or near the clinical Cmax and decreasing in half-log increments. If the clinical Cmax for an agent had not been determined, the highest concentration tested was 10 microM.
Cell Culture. All cells were maintained in an incubator at 37 degrees C and 5% CO2 with 95% humidity. The PDC lines were cultured according to standard operating procedures established by the NCI PDMR (https://pdmr.cancer.gov/sops/default.htm). All PDCs were thawed and cultured in Matrigel-coated flasks prepared with a working solution of 1X Ham's F-12 nutrient mix, without supplementation (Invitrogen, Waltham, MA, cat. 11765054), 100 U/mL penicillin-streptomycin (Invitrogen, cat. 15140122), and 2.5% Matrigel (Corning Inc., Corning, NY, cat. 354248) for the first three passages. The 354836-022-R-J1-PDC, 475296-252-R-J1-PDC, and 997726-040-R-J2-PDC lines were cultured in 6A media, which includes advanced DMEM/F-12 (Thermo Fisher Scientific, cat. 12634028), 10 mM HEPES (Thermo Fisher Scientific, cat. 15630080), 1X GlutaMAX supplement (Thermo Fisher Scientific, cat. 35050061), 0.1 mg/mL primocin (InvivoGen, San Diego, CA, cat. ant-pm-2), 10% defined fetal bovine serum, heat inactivated (HyClone Laboratories Inc., Logan, UT, cat. SH30070.03HI), 50% L-WRN conditioned media (ATCC, cat. CRL-3276), 1.25 mM N-Acetyl-L-cysteine (Sigma-Aldrich, cat. A9165), 10 mM nicotinamide (Sigma-Aldrich, cat. N0636), 1X B-27 supplement (Thermo Fisher Scientific, cat. 17504044), 1X N-2 supplement (Thermo Fisher Scientific, cat. 17502048), and 10 microM Y-27632 dihydrochloride (Tocris Bioscience, Bristol, United Kingdom, cat. 1254). The 624824-186-R-J2-PDC line was cultured in 6C/Colon 1B media, which includes all 6A media components plus 50 ng/mL human EGF recombinant protein (Thermo Fisher Scientific, cat. PHG0311). […]
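Note: spheroids exposed to compounds for seven days before readout.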

IC50 (second compound 0.00316 µM): > 100 nM | IC50 (second compound 0.01 µM): > 100 nM | IC50 (second compound 0.0316 µM): > 100 nM | IC50 (second compound 0.1 µM): < 0.316 nM | IC50 (second compound 0.316 µM): < 0.316 nM | IC50 (second compound 1 µM): < 0.316 nM
Structure (SMILES): Cn1ncnc1[C@H]1c2n[nH]c(=O)c3cc(F)cc(c23)N[C@@H]1c1ccc(F)cc1 + CC(Nc1ccc2c(c1)OCCn1cc(N3C(=O)OCC3C(F)F)nc1-2)C(N)=O
viability, T/C (second compound 0.00316 µM, first compound 0.000316 µM): 84.4% | viability, T/C (second compound 0.00316 µM, first compound 0.001 µM): 99.1% | viability, T/C (second compound 0.00316 µM, first compound 0.00316 µM): 95.7% | viability, T/C (second compound 0.00316 µM, first compound 0.01 µM): 87.5% | viability, T/C (second compound 0.00316 µM, first compound 0.0316 µM): 99.7% | viability, T/C (second compound 0.00316 µM, first compound 0.1 µM): 89.7% | viability, T/C (second compound 0.01 µM, first compound 0.000316 µM): 89.6% | viability, T/C (second compound 0.01 µM, first compound 0.001 µM): 92.4% | viability, T/C (second compound 0.01 µM, first compound 0.00316 µM): 75.9% | viability, T/C (second compound 0.01 µM, first compound 0.01 µM): 71.4% | viability, T/C (second compound 0.01 µM, first compound 0.0316 µM): 84.3% | viability, T/C (second compound 0.01 µM, first compound 0.1 µM): 75.6% | viability, T/C (second compound 0.0316 µM, first compound 0.000316 µM): 63.2% | viability, T/C (second compound 0.0316 µM, first compound 0.001 µM): 72.9% | viability, T/C (second compound 0.0316 µM, first compound 0.00316 µM): 66.2% | viability, T/C (second compound 0.0316 µM, first compound 0.01 µM): 71.5% | viability, T/C (second compound 0.0316 µM, first compound 0.0316 µM): 70.2% | viability, T/C (second compound 0.0316 µM, first compound 0.1 µM): 60.2% | viability, T/C (second compound 0.1 µM, first compound 0.000316 µM): 49.4% | viability, T/C (second compound 0.1 µM, first compound 0.001 µM): 39.8% | viability, T/C (second compound 0.1 µM, first compound 0.00316 µM): 43.6% | viability, T/C (second compound 0.1 µM, first compound 0.01 µM): 45.4% | viability, T/C (second compound 0.1 µM, first compound 0.0316 µM): 41.8% | viability, T/C (second compound 0.1 µM, first compound 0.1 µM): 39% | viability, T/C (second compound 0.316 µM, first compound 0.000316 µM): 31.2% | viability, T/C (second compound 0.316 µM, first compound 0.001 µM): 36% | viability, T/C (second compound 0.316 µM, first compound 0.00316 µM): 32.4% | viability, T/C (second compound 0.316 µM, first compound 0.01 µM): 32.4% | viability, T/C (second compound 0.316 µM, first compound 0.0316 µM): 33.4% | viability, T/C (second compound 0.316 µM, first compound 0.1 µM): 30.9% | viability, T/C (second compound 1 µM, first compound 0.000316 µM): 27.5% | viability, T/C (second compound 1 µM, first compound 0.001 µM): 26.7% | viability, T/C (second compound 1 µM, first compound 0.00316 µM): 26.6% | viability, T/C (second compound 1 µM, first compound 0.01 µM): 28.9% | viability, T/C (second compound 1 µM, first compound 0.0316 µM): 31.1% | viability, T/C (second compound 1 µM, first compound 0.1 µM): 28.8%
